# Measured values reported in patent publication US20120059021A1, “COMPOSITIONS AND METHODS FOR TREATING CANCER AND METHODS FOR PREDICTING A RESPONSE TO SUCH TREATMENTS” (UNIVERSITY OF WASHINGTON, priority 2008, published 2012).
# “Also recorded” adds a separate entry of the source. Where a SMILES comes first, the peptide text is derived from it. The star is where a group is joined. Cbz = O=C(OCc1ccccc1)*; CH2F = FC*
# What was measured:
# AXIN1 = assay: Immunoblot of steady-state AXIN1 levels in melanoma cells; assay type: cell-based, human; settings: for levels of AXIN1 following treatment with WNT3A and PLX4720: A375, 10 μM, 8 hours, WNT3A CM and 2 μM PLX4720
# Wnt/β-catenin signaling [1] = assay: β-catenin activated reporter (BAR) luciferase assay in A375 melanoma cells; settings: for Wnt/β-catenin signaling (BAR activity): A375, in the presence of WNT3A
# Text: By way of non-limiting example, Wnt/β-catenin signaling can be measured using the BAR reporter described in detail elsewhere herein. Briefly, the BAR (β-catenin activated reporter) is a lentiviral plasmid which provides for expression of luciferase in response to Wnt/β-catenin signaling. Output can be measured with an automated luminescence plate reader.
# Detailed information on the β-catenin activated reporter (BAR) has been previously described (23). Briefly, the β-catenin activated reporter (pBAR) is a lentiviral plasmid that contains 12 TCF/LEF binding sites (5′-[sequence]-3′) each separated by distinct 5 base-pair linkers upstream of a minimal promoter and the firefly luciferase open reading frame. The reporter also contains a separate PGK promoter that constitutively drives the expression of a puromycin resistance gene for mammalian cell selection. […] PLX4720 was purchased from Symansis (Australia cat# SY-PLX4720). CHIR99021 was purchased from Axon MedChem (Gronigen, Netherlands catalog #Axon1386). Z-VAD-FMK was purchased from R&D systems (Minneapolis, Minn. cat# FMKSP01).
# Low throughput BAR reporter assays. Cells were plated in 96-well plates.
# ERK1/2 phosphorylation = ERK1/2 phosphorylation in human epidermal melanocytes; assay type: cell-based; settings: HEMs
# Text: Cell Lines. The human melanoma cell lines A375, A2058 and Me1624 were obtained from Cassian Yee (Fred Hutchinson Cancer Research Institute; Seattle, Wash.). The human melanoma cell lines COLO-829, SKMEL28, SKMEL5 were purchased from ATCC (Manassas, Va.). Human Epidermal Melanocytes, adult, lightly pigmented donor, (HEMa-LP) (C0245C) were purchased from Invitrogen (Carlsbad, Calif.). Stable BAR cell lines were generated as previously described (23). BAR luciferase cell lines were also infected with a lentivirus carrying Renilla luciferase driven by a constitutive EFlalpha promoter.
# Cell Culture. The human melanoma lines A375, A2058 were cultured in DMEM supplemented with 5% FBS and 1% antibiotic. The human melanoma lines SK-MEL-5 and SK-MEL-28 were grown in EMEM supplemented with 10% FBS and 1% antibiotic. The human melanoma lines COLO-829 and MEL-624 were grown in RPMI supplemented with 10% FBS and 1% antibiotic HEMa-LP cells were cultured in medium 254 supplemented with 1% HMGS and 1% antibiotic (Invitrogen Carlsbad, Calif.). Synthetic siRNAs were transfected into cultured cells at a final concentration of 20 nM using RNAiMAX (Invitrogen; Grand Island, N.Y.).
# GSK3β = assay: Immunoblot for activating auto-phosphorylation of GSK3β in A375 cells; assay type: cell-based, human
# β-catenin = assay: Immunoblot for β-catenin phosphorylation at Ser33/Ser37/Thr41 in A375 cells; assay type: cell-based, human
# A375 = assay: qPCR of endogenous Wnt target gene AXIN2, A375; assay type: cell-based, human; settings: A375, stimulated Wnt/β-catenin signaling
# Text: RNA purification and qRT-PCR analysis. RNA was purified using the RNeasy kit following the manufacturer's protocol (Qiagen; Maryland, Md.). cDNA was synthesized using RevertAid™ M-MuLV Reverse Transcriptase (Fermentas; Ontario, CAN). Light Cycler FastStart DNA Master SYBR Green1 (Roche; Mannheim, Germany) was used for real-time PCR as previously described (53). Quantitative PCR results presented in the manuscript are averages of a minimum of three biologic replicates.
# ppERK1/2 = assay: Immunoblot for dual-phosphorylated ERK1/2 in melanoma cells; assay type: cell-based, human; settings: for dual-phosphorylated ERK1/2 (ppERK1/2): A375
# Text: By way of non-limiting example, inhibition of ERK signaling can be measured by determining the level of dual-phosphorylated ERK1/2 (ppERK1/2) as described in detail elsewhere herein. In brief, the level of ppERK1/2 can be detected by immunoblot assay.
# Wnt/β-catenin signaling [2] = assay: WNT3A-mediated reporter activity in primary melanocytes; assay type: cell-based, human; settings: HEMs
# A375 cells = assay: Immunoblot of apoptosis markers (cleaved caspase-3, cleaved PARP1) in A375 cells; assay type: cell-based, human
# BAD and Bim (BCL2L11) = assay: Immunoblot of BH3-only proteins BAD and Bim in A375 cells; assay type: cell-based, human; settings: A375, addition of Z-VAD-FMK, 24 hours
# [3] = XAV939 in the presence of U0126 or PLX4720
compound,measurement,setting,value
Oc1nc(-c2ccc(C(F)(F)F)cc2)nc2c1CSCC2 [XAV939],steady-state levels of AXIN1,"AXIN1; XAV939, absence and presence of rWnt3A",increases steady-state levels of AXIN1
same,AXIN1 protein levels,AXIN1; [3],elevate AX1N1 protein levels to above baseline levels
same,reversal of enhancement of Wnt/β-catenin signaling by MAPK inhibition,Wnt/β-catenin signaling [1]; [3],unable to completely reverse the enhancement of Wnt/β-catenin signaling by MAPK inhibition
"N#CC(=C(/N)Sc1ccccc1N)/C(C#N)=C(\N)Sc1ccccc1N [U0126, 1,4-diamino-2,3-dicyano-1,4-bis [2-aminophenylthio]butadiene]",ERK1/2 phosphorylation,ERK1/2 phosphorylation,inhibits ERK1/2 phosphorylation in a dose-dependent manner
same,activating auto-phosphorylation of GSK3B,GSK3β,loss of the activating auto-phosphorylation of GSK3B at Tyr117
same,steady-state levels of AXIN1,AXIN1; absence of rWnt3A,slightly decreased
same,steady-state levels of AXIN1,AXIN1; presence of rWnt3A,markedly diminished
same,phosphorylation of β-catenin at GSK3β sites (Ser33/Ser37/Thr41),β-catenin,decreased phosphorylation of β-catenin
same,levels of the endogenous Wnt/β-catenin target gene AXIN2,A375,dose-dependent increase
same,dual-phosphorylated ERK1/2 (ppERK1/2),ppERK1/2,inhibition of ppERK1/2
same,ERK1/2 phosphorylation,ppERK1/2; six established melanoma lines harboring the BRAF^V600E mutation,inhibition of ERK1/2 phosphorylation
same,Wnt/β-catenin signaling (BAR activity),Wnt/β-catenin signaling [1],synergistically enhanced Wnt/β-catenin activation; also recorded: dose-dependent increase in stimulated Wnt/β-catenin signaling
same,Wnt/β-catenin signaling,Wnt/β-catenin signaling [2],inhibited Wnt/β-catenin signaling
"Cc1c[nH]c(-c2cnc(NCCNc3ccc(C#N)cn3)nc2-c2ccc(Cl)cc2Cl)n1 [CHIR99021, 6-[[2-[[4-(2,4-dichlorophenyl)-5-(5-methyl-1H-imidazol-2-yl)-2-pyrimidinyl]amino]ethyl]amino]-3-pyridinecarbonitrile]",activating auto-phosphorylation of GSK3B,GSK3β,loss of the activating auto-phosphorylation at Tyr216
same,apoptosis (cleaved caspase-3 immunoblot),"A375 cells; A375, 5 μM CHIR99021 and 2 μM PLX4720, 36 hours",enhanced apoptosis in combination with PLX4720
CC(C)C[C@@H](C=O)NC(=O)[C@H](CC(C)C)NC(=O)[C@H](CC(C)C)NC(=O)OCc1ccccc1 [MG132] (Cbz-Leu-Leu-Leu-aldehyde),levels of AXIN1 following treatment with WNT3A and PLX4720,AXIN1,increased the levels of AXIN1
"Cn1cnc2c(F)c(Nc3ccc(Br)cc3Cl)c(C(=O)NOCCO)cc21 [AZD6244, 6-(4-Bromo-2-chloro-phenylamino)-7-fluoro-3-methyl-3H-benzoimidazole-5-carboxylic acid (2-hydroxy-ethoxy)-amide]",dual-phosphorylated ERK1/2 (ppERK1/2),ppERK1/2,inhibition of ppERK1/2
same,Wnt/β-catenin signaling (BAR activity),Wnt/β-catenin signaling [1],synergistically enhanced Wnt/β-catenin activation
CCN(CC)CCCC(C)Nc1ccnc2cc(Cl)ccc12 (stereo not drawn) [chloroquine],levels of AXIN1 following treatment with WNT3A and PLX4720,AXIN1,not
COC(=O)C[C@H](NC(=O)[C@H](C)NC(=O)[C@@H](NC(=O)OCc1ccccc1)C(C)C)C(=O)CF [Z-VAD-FMK] (Cbz-Val-Ala-Asp(OMe)-CH2F),loss of steady-state AXIN1 with WNT3A and PLX4720,"AXIN1; A375, Z-VAD-FMK, 24 hours",did not affect the loss of steady-state AXIN1
same,apoptosis with WNT3A and PLX4720,"A375 cells; A375, Z-VAD-FMK",able to inhibit apoptosis
same,PARP1 cleavage induced by WNT3A and PLX4720,"A375 cells; A375, addition of Z-VAD-FMK, 24 hours",completely abolished
same,Wnt/β-catenin activation as measured by BAR,"Wnt/β-catenin signaling [1]; A375, Z-VAD-FMK with WNT3A and 2 μM PLX4720, 24 hours",augments Wnt/β-catenin activation
same,increase in BimL and BimS with WNT3A and PLX4720,BAD and Bim (BCL2L11),not blocked
